# Calls of active or inactive are those of the source.
# Columns and labels:
# [1] = biological target: T1, Kappa-type opioid receptor (Homo sapiens, UniProt P41145); assay: SAR analysis of small molecule agonists of the kappa opioid receptor via a luminescent beta-arrestin assay - Set 3. [Related pubchem assays (depositor defined):AID1777, AID1785, AID1786, AID1966, AID2133, AID2136, AID2284, AID2500]; type: functional
# [2] = biological target: Delta-type opioid receptor (Homo sapiens, UniProt P41143); assay: SAR Analysis of Agonists of the DOR Receptor using an Image-Based Assay - Set 3. [Related pubchem assays (depositor defined):AID1777, AID1786]; type: functional
# [3] = biological target: T1, Kappa-type opioid receptor; assay: kappa opioid receptor activation by imaging – image-based, set 3, SAR follow-up (AID 488833); type: functional
# Mu-type opioid receptor = Mu-type opioid receptor (Homo sapiens, UniProt P35372); assay: SAR Analysis of Agonists of the MOR Receptor using an Image-Based Assay - Set 3. [Related pubchem assays (depositor defined):AID1777, AID1785, AID1786, AID1966, AID2133, AID2136, AID2284, AID2285, AID2352]; type: functional
# Phosphomannomutase 2 = Phosphomannomutase 2 (Homo sapiens, UniProt O15305); assay: Counter screen SAR assay for PMM2 inhibitors via a fluorescence intensity assay. [Related pubchem assays (depositor defined):AID1545, AID1574]
# [4] = biological target: T2, Mannose-6-phosphate isomerase (Homo sapiens, UniProt P34949); assay: phosphomannose isomerase inhibition – biochemical, fluorescence intensity, confirmation (AID 1535)
# T2 sequence (P34949 whole entry): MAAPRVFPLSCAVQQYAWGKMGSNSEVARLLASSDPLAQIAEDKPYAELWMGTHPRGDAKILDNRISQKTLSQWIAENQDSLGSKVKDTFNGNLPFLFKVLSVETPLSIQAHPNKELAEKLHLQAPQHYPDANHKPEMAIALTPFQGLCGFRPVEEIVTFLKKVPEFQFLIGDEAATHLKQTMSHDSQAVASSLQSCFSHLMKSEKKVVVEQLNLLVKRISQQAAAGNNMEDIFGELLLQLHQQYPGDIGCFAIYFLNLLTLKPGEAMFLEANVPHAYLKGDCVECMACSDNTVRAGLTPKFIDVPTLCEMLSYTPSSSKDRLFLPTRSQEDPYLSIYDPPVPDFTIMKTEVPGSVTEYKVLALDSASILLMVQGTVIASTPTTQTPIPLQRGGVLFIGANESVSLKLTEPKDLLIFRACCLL
# Cytochrome P450 2C19 = Cytochrome P450 2C19 (Homo sapiens, UniProt P33261); assay: Cytochrome panel assay with activity outcomes. Panel member name: p450-cyp2c19 Compounds with AC50 equal or less than 10 uM are considered active; type: functional; settings: read-out: AC50
# Cytochrome P450 1A2 = biological target: T3, Cytochrome P450 1A2 (Homo sapiens, UniProt P05177);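 note: PubChem cytochrome P450 panel assay, CYP1A2 panel member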
# T3 sequence (P05177 whole entry): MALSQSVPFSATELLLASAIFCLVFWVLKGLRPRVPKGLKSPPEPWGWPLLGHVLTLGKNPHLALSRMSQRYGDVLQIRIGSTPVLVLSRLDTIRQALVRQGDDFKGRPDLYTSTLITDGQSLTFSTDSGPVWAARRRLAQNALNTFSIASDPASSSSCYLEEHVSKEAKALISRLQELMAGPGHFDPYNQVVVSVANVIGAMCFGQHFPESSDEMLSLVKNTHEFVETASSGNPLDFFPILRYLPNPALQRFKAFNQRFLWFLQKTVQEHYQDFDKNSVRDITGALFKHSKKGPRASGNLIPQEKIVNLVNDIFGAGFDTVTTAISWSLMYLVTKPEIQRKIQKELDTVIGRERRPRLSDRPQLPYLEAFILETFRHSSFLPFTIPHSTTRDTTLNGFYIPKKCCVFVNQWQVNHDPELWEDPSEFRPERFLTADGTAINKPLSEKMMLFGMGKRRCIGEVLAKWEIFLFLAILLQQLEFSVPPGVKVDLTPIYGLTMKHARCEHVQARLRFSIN
# Cannabinoid receptor 2 [5] = biological target: T4, Cannabinoid receptor 2 (Homo sapiens, UniProt P34972); assay: SAR analysis of antagonists of the Cannabinoid Receptor 2 using an Image-Based Assay - Set 3. [Related pubchem assays (depositor defined):AID2013, AID2026]; type: functional
# [6] = biological target: G-protein coupled receptor 55 (Homo sapiens, UniProt Q9Y2T6); assay: SAR Analysis of Selective Antagonists of GPR55 using an Image-Based Assay - Set 4. [Related pubchem assays (depositor defined):AID2013, AID2026]; type: functional;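 note: antagonism of response to 5 µM lysophosphatidylinositol agonist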
# Cannabinoid receptor 1 [7] = biological target: T5, Cannabinoid receptor 1 (Homo sapiens, UniProt P21554); assay: SAR analysis of agonists of the Cannabinoid Receptor 1 using an Image-Based Assay - Set 4. [Related pubchem assays (depositor defined):AID2013, AID2026]; type: functional
# [8] = biological target: T6, G-protein coupled receptor 35 (Homo sapiens, UniProt Q9HC97); assay: SAR analysis of Agonists of the GPR35 Receptor using an Image-Based Assay - Set 4. [Related pubchem assays (depositor defined):AID2013, AID2026]; type: functional
# [9] = biological target: T7, High affinity choline transporter 1 (Homo sapiens, UniProt Q9GZV3); assay: human choline transporter blockers, potency – cell-based, 5-point CRC, membrane potential dye, dose response (AID 504840); type: functional
# T7 sequence (Q9GZV3 whole entry): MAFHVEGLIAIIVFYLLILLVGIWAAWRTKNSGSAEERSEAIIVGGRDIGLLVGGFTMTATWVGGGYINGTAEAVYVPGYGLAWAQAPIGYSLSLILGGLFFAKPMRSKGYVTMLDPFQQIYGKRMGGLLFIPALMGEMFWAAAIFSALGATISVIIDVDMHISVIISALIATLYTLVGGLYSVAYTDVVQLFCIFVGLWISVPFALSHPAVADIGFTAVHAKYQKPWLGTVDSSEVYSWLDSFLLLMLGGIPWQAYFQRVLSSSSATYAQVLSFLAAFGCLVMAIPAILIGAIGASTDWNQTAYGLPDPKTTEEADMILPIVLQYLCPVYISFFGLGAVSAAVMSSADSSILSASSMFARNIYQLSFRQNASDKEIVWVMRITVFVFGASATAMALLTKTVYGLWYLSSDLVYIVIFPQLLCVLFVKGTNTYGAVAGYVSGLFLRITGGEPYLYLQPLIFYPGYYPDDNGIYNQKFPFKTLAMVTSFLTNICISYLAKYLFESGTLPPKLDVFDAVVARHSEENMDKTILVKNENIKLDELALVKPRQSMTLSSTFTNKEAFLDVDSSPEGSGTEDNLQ
# [10] = biological target: T6, G-protein coupled receptor 35; assay: SAR analysis of Antagonists of the GPR35 Receptor using an Image-Based Assay - Set 6. [Related pubchem assays (depositor defined):AID2013, AID2026]; type: functional
# Cannabinoid receptor 1 [11] = biological target: T5, Cannabinoid receptor 1; assay: SAR analysis of antagonists of the Cannabinoid Receptor 1 using an Image-Based Assay - Set 4. [Related pubchem assays (depositor defined):AID2013, AID2026]; type: functional
# [12] = biological target: COUP transcription factor 2 (Homo sapiens, UniProt P24468); assay: Luminescence-based cell-based high throughput dose response assay to identify inhibitors of COUP-TFII (NR2F2).; type: functional;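 note: HEK293 cells transiently cotransfected with COUP-TFII expression vector and reporter; luciferase reporter luminescence driven by COUP-TFII from the pX2-168 reporter plasmid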
# Cannabinoid receptor 2 [13] = biological target: T4, Cannabinoid receptor 2; assay: SAR analysis of agonists of the Cannabinoid Receptor 2 using an Image-Based Assay - Set 3. [Related pubchem assays (depositor defined):AID2013, AID2026]; type: functional
# Albumin = Albumin (Bos taurus, UniProt P02769); assay: Counterscreen for inhibitors of T-cell receptor (TCR)-CD3 interaction: Fluorescence-based biochemical high throughput dose response assay to identify inhibitors of T-cell receptor (TCR)-CD3 interaction using a TAMRA-labeled BSA probe.; type: functional
# [14] = biological target: Intestinal-type alkaline phosphatase (Homo sapiens, UniProt P09923); assay: activation of human intestinal alkaline phosphatase – biochemical, dose response (AID 488873); type: functional
# [15] = biological target: T8, Alkaline phosphatase, tissue-nonspecific isozyme (Homo sapiens, UniProt P05186); assay: activation of tissue-nonspecific alkaline phosphatase – biochemical, TNAP isozyme, mouse IAP uHTS hits, selectivity assay for mouse IAP activator project, dose response (AID 488880); type: functional
# T8 sequence (P05186 whole entry): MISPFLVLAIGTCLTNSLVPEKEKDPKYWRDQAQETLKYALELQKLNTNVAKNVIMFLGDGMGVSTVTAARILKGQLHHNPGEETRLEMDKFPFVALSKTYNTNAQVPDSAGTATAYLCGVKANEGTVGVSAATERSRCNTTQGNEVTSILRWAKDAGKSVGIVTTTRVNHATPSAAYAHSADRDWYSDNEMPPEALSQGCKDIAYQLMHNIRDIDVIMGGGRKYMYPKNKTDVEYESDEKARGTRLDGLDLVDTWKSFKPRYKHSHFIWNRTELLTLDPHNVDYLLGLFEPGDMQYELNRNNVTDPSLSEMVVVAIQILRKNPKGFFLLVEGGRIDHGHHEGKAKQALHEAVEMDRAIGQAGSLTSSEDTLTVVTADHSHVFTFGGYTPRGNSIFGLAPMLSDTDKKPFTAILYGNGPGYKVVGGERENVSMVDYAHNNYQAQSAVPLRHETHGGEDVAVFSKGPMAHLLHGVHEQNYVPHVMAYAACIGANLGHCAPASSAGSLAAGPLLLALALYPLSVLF
# [16] = biological target: Intestinal-type alkaline phosphatase (Mus musculus, UniProt P24822); assay: mouse intestinal alkaline phosphatase activators, dose response, biochemical, luminescence, uHTS hits (AID 488783); type: functional
# Bcl-2-like protein 1 = Bcl-2-like protein 1 (Homo sapiens, UniProt Q07817); assay: blockers of BCLXL peptide binding – biochemical, fluorescence polarization, 1536-well, selectivity assay for MCL1 inhibitor project, dose response (AID 2218)
# Genome polyprotein = Genome polyprotein (dengue virus type 2, UniProt P29990); assay: flavivirus cap methylation enzyme inhibition – biochemical, confirmation dose response, primary screen (AID 588689); type: functional
# [17] = biological target: Induced myeloid leukemia cell differentiation protein Mcl-1 (Homo sapiens, UniProt Q07820); assay: blockers of MCL1 binding to BIM peptide – biochemical, fluorescence polarization, BIM-BH3 peptide, 1536-well, dose response (AID 2217)
# [18] = T. cruzi infection blockers in NIH3T3 cells – beta-gal luminescence, NIH3T3 host cells, confirmation (AID 2630); type: functional, cell-based; settings: Mus musculus
# Cytochrome P450 3A4 = Cytochrome P450 3A4 (Homo sapiens, UniProt P08684);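 note: CYP3A4 tested as one member of a cytochrome P450 panel screen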
# Cytochrome P450 2C9 = Cytochrome P450 2C9 (Homo sapiens, UniProt P11712)
# Sequence of Cytochrome P450 2C9 (P11712 whole entry): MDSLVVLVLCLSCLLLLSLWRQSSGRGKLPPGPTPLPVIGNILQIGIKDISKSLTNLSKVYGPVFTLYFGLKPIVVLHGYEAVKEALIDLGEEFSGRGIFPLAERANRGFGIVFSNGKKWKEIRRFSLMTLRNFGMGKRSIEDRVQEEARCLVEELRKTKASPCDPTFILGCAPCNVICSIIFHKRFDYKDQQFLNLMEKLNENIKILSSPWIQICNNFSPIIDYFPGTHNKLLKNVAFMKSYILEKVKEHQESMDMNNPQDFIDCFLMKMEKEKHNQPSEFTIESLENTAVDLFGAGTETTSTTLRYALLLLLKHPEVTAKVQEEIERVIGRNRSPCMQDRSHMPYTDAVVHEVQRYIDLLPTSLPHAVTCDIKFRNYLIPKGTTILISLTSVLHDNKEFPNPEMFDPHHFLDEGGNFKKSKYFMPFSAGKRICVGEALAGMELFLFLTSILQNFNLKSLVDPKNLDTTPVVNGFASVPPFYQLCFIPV
# T6 sequence (Q9HC97 whole entry): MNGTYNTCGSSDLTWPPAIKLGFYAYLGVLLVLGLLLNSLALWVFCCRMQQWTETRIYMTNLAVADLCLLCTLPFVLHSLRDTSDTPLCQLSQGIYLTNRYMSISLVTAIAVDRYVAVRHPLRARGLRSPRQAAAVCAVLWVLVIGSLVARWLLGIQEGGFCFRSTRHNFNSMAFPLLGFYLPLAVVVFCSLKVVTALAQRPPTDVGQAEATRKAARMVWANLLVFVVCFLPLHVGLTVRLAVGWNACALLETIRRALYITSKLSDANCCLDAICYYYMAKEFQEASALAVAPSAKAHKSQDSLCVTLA
# T5 sequence (P21554 whole entry): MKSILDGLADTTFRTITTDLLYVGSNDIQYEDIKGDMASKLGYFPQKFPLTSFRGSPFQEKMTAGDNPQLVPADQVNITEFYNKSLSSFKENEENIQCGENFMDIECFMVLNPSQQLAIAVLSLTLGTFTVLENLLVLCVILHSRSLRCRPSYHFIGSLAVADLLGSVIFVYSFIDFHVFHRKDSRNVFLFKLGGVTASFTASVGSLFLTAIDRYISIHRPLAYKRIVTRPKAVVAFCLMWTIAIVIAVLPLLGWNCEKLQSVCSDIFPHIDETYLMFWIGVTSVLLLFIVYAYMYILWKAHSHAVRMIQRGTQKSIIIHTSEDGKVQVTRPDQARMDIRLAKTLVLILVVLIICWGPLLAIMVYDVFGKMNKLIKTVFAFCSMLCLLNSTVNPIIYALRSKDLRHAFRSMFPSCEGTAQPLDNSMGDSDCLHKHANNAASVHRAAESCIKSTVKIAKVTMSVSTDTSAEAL
# T1 sequence (P41145 whole entry): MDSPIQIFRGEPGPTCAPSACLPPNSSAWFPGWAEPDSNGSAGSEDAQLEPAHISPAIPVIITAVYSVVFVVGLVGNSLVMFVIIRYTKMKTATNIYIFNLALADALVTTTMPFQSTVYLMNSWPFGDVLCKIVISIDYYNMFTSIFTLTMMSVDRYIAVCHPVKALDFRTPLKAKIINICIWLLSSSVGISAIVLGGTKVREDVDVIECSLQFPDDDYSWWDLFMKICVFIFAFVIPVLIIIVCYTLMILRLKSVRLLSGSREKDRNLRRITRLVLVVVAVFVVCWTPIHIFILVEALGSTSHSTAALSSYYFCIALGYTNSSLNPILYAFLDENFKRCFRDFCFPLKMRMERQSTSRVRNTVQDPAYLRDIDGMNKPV
# Sequence of Cytochrome P450 2C19 (P33261 whole entry): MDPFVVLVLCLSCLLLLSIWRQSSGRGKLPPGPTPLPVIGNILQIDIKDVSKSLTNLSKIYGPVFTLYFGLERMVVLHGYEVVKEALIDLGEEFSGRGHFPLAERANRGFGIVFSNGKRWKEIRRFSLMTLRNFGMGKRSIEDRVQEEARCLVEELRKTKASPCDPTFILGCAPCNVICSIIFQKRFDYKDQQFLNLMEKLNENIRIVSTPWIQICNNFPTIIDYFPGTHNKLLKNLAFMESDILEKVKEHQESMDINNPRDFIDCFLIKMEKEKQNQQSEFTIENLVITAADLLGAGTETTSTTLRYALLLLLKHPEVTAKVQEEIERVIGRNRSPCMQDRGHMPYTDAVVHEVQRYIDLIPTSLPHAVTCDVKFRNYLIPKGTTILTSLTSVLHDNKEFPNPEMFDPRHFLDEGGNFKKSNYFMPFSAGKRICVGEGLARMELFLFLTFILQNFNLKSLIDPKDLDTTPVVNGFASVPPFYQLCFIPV
# T4 sequence (P34972 whole entry): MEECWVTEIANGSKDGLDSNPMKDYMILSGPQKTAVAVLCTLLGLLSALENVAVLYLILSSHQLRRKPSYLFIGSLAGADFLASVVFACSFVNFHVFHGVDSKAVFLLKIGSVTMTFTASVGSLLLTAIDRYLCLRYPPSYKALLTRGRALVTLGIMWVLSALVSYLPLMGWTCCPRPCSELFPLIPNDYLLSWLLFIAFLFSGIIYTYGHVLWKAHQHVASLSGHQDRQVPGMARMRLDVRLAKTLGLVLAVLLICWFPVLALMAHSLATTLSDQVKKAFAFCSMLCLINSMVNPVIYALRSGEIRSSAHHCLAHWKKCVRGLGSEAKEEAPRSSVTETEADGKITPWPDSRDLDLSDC
# Sequence of Albumin (P02769 whole entry): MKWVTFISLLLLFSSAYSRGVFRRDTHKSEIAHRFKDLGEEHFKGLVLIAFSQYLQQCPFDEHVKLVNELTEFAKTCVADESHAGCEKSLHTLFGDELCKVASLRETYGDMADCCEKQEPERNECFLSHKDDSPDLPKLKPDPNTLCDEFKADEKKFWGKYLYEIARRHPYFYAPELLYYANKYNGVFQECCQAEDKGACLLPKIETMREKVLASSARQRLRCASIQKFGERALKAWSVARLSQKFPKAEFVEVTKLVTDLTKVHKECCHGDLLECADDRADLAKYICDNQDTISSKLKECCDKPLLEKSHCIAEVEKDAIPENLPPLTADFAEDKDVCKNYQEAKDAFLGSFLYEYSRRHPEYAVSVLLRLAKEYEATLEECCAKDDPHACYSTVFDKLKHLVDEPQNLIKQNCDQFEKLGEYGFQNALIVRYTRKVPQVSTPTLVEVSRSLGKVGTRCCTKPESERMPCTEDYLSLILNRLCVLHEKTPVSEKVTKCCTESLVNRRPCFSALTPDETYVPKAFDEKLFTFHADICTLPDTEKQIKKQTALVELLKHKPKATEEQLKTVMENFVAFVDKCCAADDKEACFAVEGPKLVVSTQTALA
# Sequence of Bcl-2-like protein 1 (Q07817 whole entry): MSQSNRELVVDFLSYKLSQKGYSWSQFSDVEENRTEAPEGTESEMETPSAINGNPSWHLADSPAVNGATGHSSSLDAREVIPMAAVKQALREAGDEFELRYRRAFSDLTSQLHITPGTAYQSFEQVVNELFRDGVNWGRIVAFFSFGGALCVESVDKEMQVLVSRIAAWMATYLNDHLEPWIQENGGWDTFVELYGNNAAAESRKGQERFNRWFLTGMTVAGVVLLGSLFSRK
# Sequence of Cytochrome P450 3A4 (P08684 whole entry): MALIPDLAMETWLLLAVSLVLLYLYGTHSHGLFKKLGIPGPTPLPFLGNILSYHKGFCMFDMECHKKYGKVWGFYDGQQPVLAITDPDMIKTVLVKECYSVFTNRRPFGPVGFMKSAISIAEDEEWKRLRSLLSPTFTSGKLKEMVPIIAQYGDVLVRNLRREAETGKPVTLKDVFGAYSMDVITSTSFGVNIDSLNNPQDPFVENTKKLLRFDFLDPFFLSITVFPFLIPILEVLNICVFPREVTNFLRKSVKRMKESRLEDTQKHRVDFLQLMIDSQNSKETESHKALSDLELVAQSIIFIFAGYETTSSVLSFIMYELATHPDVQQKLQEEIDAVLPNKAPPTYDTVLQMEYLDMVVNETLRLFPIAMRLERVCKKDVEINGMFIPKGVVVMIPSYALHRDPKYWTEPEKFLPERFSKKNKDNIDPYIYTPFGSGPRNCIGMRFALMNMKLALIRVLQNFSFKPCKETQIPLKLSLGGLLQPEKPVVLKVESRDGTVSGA
# Sequence of Induced myeloid leukemia cell differentiation protein Mcl-1 (Q07820 whole entry): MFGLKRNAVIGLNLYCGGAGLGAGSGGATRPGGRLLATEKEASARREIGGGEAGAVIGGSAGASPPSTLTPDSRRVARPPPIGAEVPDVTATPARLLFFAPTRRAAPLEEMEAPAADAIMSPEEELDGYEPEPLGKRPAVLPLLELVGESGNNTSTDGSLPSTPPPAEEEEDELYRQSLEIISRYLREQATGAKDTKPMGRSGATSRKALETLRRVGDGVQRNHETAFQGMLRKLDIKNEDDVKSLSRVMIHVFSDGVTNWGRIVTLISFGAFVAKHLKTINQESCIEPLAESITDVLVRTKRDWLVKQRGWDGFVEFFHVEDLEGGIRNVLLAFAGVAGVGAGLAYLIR
# Sequence of Mu-type opioid receptor (P35372 whole entry): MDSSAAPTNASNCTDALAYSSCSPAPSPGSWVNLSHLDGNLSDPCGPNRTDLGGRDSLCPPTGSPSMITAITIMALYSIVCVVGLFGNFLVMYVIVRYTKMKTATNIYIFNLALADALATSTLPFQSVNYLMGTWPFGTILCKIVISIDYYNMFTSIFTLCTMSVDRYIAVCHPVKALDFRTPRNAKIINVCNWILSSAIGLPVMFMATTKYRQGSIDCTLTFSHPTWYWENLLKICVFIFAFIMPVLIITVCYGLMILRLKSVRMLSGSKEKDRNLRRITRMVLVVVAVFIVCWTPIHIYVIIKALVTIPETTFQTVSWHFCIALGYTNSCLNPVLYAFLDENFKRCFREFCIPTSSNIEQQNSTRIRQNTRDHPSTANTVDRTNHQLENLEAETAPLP
# Sequence of G-protein coupled receptor 55 (Q9Y2T6 whole entry): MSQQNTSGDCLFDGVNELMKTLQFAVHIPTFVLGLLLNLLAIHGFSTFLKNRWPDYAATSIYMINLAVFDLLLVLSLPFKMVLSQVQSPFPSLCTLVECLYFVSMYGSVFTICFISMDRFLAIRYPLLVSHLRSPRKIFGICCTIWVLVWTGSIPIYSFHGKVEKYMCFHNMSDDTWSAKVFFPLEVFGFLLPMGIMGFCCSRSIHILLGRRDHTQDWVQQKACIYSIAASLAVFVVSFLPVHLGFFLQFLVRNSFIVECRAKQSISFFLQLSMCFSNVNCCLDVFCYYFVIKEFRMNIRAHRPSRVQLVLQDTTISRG
smiles,measurement,setting,value
Fc1ccc(CSc2nnc(-c3ccccn3)n2Cc2ccco2)c(F)c1F,EC50,[1],7.01 µM (active)
same,EC50,[2],> 64 µM (inactive)
same,EC50,[3],5.29 µM (active)
same,EC50,Mu-type opioid receptor,> 32 µM (inactive)
COCC/N=c1\ssnc1Cl,IC50,Phosphomannomutase 2,> 100 µM (inactive)
same,IC50,[4],11.9 µM (active)
CC(C)[C@@H]1C(=O)N(S(C)(=O)=O)[C@H]2CCN(C(=O)/C=C\CN3CCCCC3)[C@@H]12,AC50,Cytochrome P450 2C19,20 µM (inconclusive)
same,AC50,Cytochrome P450 1A2,inconclusive
Oc1ccc(-c2n[nH]c(C(F)(F)F)c2-c2ccccc2)c(O)c1,IC50,Cannabinoid receptor 2 [5],> 32 µM (inactive)
same,IC50,[6],2.95 µM (active)
same,EC50,Cannabinoid receptor 1 [7],> 32 µM (inactive)
same,EC50,[8],> 32 µM (inactive)
same,IC50,[9],11 µM (active)
same,IC50,[10],> 32 µM (inactive)
same,IC50,Cannabinoid receptor 1 [11],3.49 µM (active)
same,IC50,[12],10.9 µM (inactive)
same,EC50,Cannabinoid receptor 2 [13],27.4 µM (inactive)
O=c1cc(-c2ccc(O)cc2)oc2c(O)c(O)c(O)c(O)c12,IC50,Albumin,> 94.2 µM (inactive)
same,EC50,[14],81 µM (active)
same,EC50,[15],43.4 µM (active)
same,EC50,[16],71.9 µM (active)
same,IC50,Bcl-2-like protein 1,> 109 µM (not active)
same,IC50,Genome polyprotein,> 100 µM (active)
same,IC50,[17],18.8 µM (not active)
O=C(CN1CCOCC1)N/N=C/c1ccc([N+](=O)[O-])o1,EC50,[18],0.127 µM (active)
Cc1ccc(C)c(N2CCN(C(=O)C3CCN(S(=O)(=O)c4cccc5nsnc45)CC3)CC2)c1,AC50,Cytochrome P450 3A4,inconclusive
same,AC50,Cytochrome P450 2C19,4.47 µM (inconclusive)
same,AC50,Cytochrome P450 2C9,7.08 µM (inconclusive)
